Values joined by “and” are separate entries in the source; they are usually repeats but may differ in a detail not shown here. Equal entries are not always repeated. “Also recorded” adds a separate entry of the source. Where two headings read alike, the source gives them in different places.
Legend:
TKU015 nattokinase [1] = format: biochemical, Pseudomonas sp. TKU015; conditions: for Effect on TKU015 nattokinase activity: metal ion or inhibitor added
nattokinase = conditions: ion added; cited from earlier work
chitosanase = format: biochemical, Pseudomonas sp. TKU015
Procedure: (§1) In order to produce chitinase and chitosanase, generally, TKU015 is cultured in a liquid shaking culture medium (pH 8) including 0.5% by weight of SSP, 0.1% by weight of K2HPO4 and 0.05% by weight of MgSO4.7H2O for 3 days at 30° C. The obtained fermented supernatant is purified with ammonia sulfate precipitation, DEAE-Sepharose chromatography, Phenyl-Sepharose chromatography, and Sephacryl S-100 chromatography in sequence, and a chitinase and a chitosanase is obtained.
(§2) Pseudomonas sp. TKU015 is cultured in a liquid medium (100 mL/250 mL), which employ shrimp shell powder as carbon/nitrogen source, for 2-3 days at 30° C., and chitinase, chitosanase and nattokinase activity are tested in the medium.

TKU015 nattokinase [2] = assay: Influence of organic solvents on TKU015 nattokinase activity at different temperature (ten days); format: biochemical, Pseudomonas sp. TKU015; conditions: mixed with solvent, 100% represents 15 FU/mL
Procedure: (§3) With respect to thermal stability, TKU015 nattokinase is mixed with different solvents and then respectively placed for ten days at 25° C. and 4° C.

[3] = biological target: Pseudomonas aeruginosa PseA protease (Pseudomonas aeruginosa, UniProt P14756); conditions: cited from earlier work; for Effect of solvent on PseA protease activity: in the presence of solvent
Pseudomonas aeruginosa PseA protease, sequence (P14756 198-498): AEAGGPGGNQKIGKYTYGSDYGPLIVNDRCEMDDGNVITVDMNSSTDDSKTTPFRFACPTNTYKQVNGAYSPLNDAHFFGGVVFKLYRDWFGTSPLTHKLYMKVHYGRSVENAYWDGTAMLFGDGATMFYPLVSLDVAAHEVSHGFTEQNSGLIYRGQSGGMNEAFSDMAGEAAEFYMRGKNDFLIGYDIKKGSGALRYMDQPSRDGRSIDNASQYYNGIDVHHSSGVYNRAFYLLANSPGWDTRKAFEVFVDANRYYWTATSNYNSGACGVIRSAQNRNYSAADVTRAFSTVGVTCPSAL

TKU015 nattokinase [4] = assay: Influence of organic solvents on activity of TKU015 nattokinase; format: biochemical, Pseudomonas sp. TKU015; conditions: in the presence of organic solvent; for Relative activity(%) TKU015 nattokinase: 100% represents 20 FU/mL
Procedure: Protease activity of the supernatant obtained from culture medium of chitinase (cultured in a liquid shaking culture medium (pH 8) including 0.5% by weight of SSP, 0.1% by weight of K2HPO4 and 0.05% by weight of MgSO4.7H2O for 3 days at 30° C.) is respectively tested using casein and N-succinyl-Ala-Ala-Pro-Phe-pNa as substrate.
as §3

chitinase = assay: Influence of metal ions and organic solvents on TKU015 chitinase activity; format: biochemical, Pseudomonas sp. TKU015
Procedure: as §1, §2

PST-01 protease = PST-01 protease (Pseudomonas aeruginosa, UniProt P14756); conditions: in the presence of solvent; cited from earlier work
PST-01 protease, sequence (P14756 198-498): as above

san-ai protease = conditions: in the presence of solvent; cited from earlier work
TKU015 nattokinase [5] = assay: Influence of surfactants on TKU015 nattokinase activity; format: biochemical, Pseudomonas sp. TKU015; conditions: for Relative activity (%) Nattokinase: 100% represents 18 FU/mL
[6] = concentration 5 mM, 100% represents 19 FU/mL
[7] = after placed for 10 days at 25° C.
[8] = concentration 10 mM, 100% represents 19 FU/mL
[9] = after placed for 10 days, temperature not given
[10] = after placed for 10 days at 4° C.

Molecule: [Al+3] [Al^3+]
- Relative activity (%) Nattokinase (TKU015 nattokinase [1]; [6]): 101%

Molecule: [Ba+2] [Ba^2+]
- Relative activity (%) Nattokinase (TKU015 nattokinase [1]; [6]): 109%

Molecule: [Ca+2] [Ca^2+]
- Relative activity (%) Nattokinase (TKU015 nattokinase [1]; [6]): 108%
- Effect on TKU015 nattokinase activity (TKU015 nattokinase [1]): does not
- Effect of metal ion on nattokinase activity (nattokinase): increased activity

Molecule: [Cu+2] [Cu^2+]
- Relative activity (%) Nattokinase (TKU015 nattokinase [1]; [6]): 95%
- Effect on TKU015 nattokinase activity (TKU015 nattokinase [1]): does not
- Effect of metal ions and PMSF on chitosanase activity (chitosanase): inhibited
- Effect of metal ion on nattokinase activity (nattokinase): increased activity

Molecule: CN(C)C=O [DMF, N,N-dimethylformamide]
- Relative activity(%) TKU015 nattokinase (TKU015 nattokinase [2]; placed ten days at 4 ° C.): 120%
- Relative activity(%) TKU015 nattokinase (TKU015 nattokinase [2]; placed ten days at 25 ° C.): 98%
- Effect of solvent on PseA protease activity [3]: doesn't change
- Relative activity(%) TKU015 nattokinase (TKU015 nattokinase [4]): 80% and 64%
- Organic solvent resistance of chitinase (chitinase; [7]): don't affect activity
- Effect of solvent on PST-01 protease activity (PST-01 protease): doesn't change
- Organic solvent resistance of chitosanase (chitosanase; [7]): don't affect activity
- Effect of solvent on san-ai protease activity (san-ai protease): doesn't change

Molecule: C[S+](C)[O-] [DMSO]
- Relative activity(%) TKU015 nattokinase (TKU015 nattokinase [2]; placed ten days at 4 ° C.): 90%
- Relative activity(%) TKU015 nattokinase (TKU015 nattokinase [2]; placed ten days at 25 ° C.): 94%
- Relative activity(%) TKU015 nattokinase (TKU015 nattokinase [4]): 80%

Molecule: O=C(O)CN(CCN(CC(=O)O)CC(=O)O)CC(=O)O [EDTA]
- Relative activity (%) Nattokinase (TKU015 nattokinase [1]): 117%

Molecule: [Fe+2] [Fe^2+]
- Relative activity (%) Nattokinase (TKU015 nattokinase [1]; [6]): 232%
- Relative activity (%) Nattokinase (TKU015 nattokinase [1]; [8]): 156%
- Effect on TKU015 nattokinase activity (TKU015 nattokinase [1]): improve activity; also recorded: increase its activity
- Effect of metal ions on chitinase activity (chitinase): inhibited; also recorded: prohibited

Molecule: [Mg+2] [Mg^2+]
- Relative activity (%) Nattokinase (TKU015 nattokinase [1]; [6]): 104%
- Effect on TKU015 nattokinase activity (TKU015 nattokinase [1]): does not
- Effect of metal ion on nattokinase activity (nattokinase): increased activity

Molecule: [Mn+2] [Mn^2+]
- Relative activity (%) Nattokinase (TKU015 nattokinase [1]; [6]): 102%
- Effect of metal ions on chitinase activity (chitinase): inhibited; also recorded: prohibited
- Effect of metal ions and PMSF on chitosanase activity (chitosanase): inhibited

Molecule: O=S(=O)(F)Cc1ccccc1 [PMSF, phenylmethanesulfonyl fluoride]
- Relative activity (%) Nattokinase (TKU015 nattokinase [1]; [6]): 45%
- Relative activity (%) Nattokinase (TKU015 nattokinase [1]; [8]): 0%
- Effect on TKU015 nattokinase activity (TKU015 nattokinase [1]): completely inhibited
- Effect of metal ions and PMSF on chitosanase activity (chitosanase): inhibited

Molecule: CCCCCCCCCCCCOS(=O)(=O)[O-].[Na+] [SDS]
- Remaining activity of PseA protease ([3]; concentration 0.1%): 61%
- TKU015 nattokinase remaining activity (TKU015 nattokinase [5]; concentration 0.5, 1, or 2 mM (one value in text)): 50%
- Relative activity (%) Nattokinase (TKU015 nattokinase [5]; surfactant 0.5 mM): 66%
- Relative activity (%) Nattokinase (TKU015 nattokinase [5]; surfactant 1 mM): 56%
- Relative activity (%) Nattokinase (TKU015 nattokinase [5]; surfactant 2 mM): 56%

Molecule: [Zn+2] [Zn^2+]
- Relative activity (%) Nattokinase (TKU015 nattokinase [1]; [6]): 94%

Molecule: CC(C)=O [acetone]
- Relative activity(%) TKU015 nattokinase (TKU015 nattokinase [2]; placed ten days at 4 ° C.): 128%
- Relative activity(%) TKU015 nattokinase (TKU015 nattokinase [2]; placed ten days at 25 ° C.): 108%
- Relative activity(%) TKU015 nattokinase (TKU015 nattokinase [4]): 150%
- Organic solvent resistance of chitinase (chitinase; [9]): can affect activity
- Activity of PST-01 protease (PST-01 protease): 200%
- Effect of solvent on PST-01 protease activity (PST-01 protease): doesn't change
- Organic solvent resistance of chitosanase (chitosanase; [10]): can affect activity

Molecule: CC#N [acetonitrile]
- Relative activity(%) TKU015 nattokinase (TKU015 nattokinase [2]; placed ten days at 4 ° C.): 90%
- Relative activity(%) TKU015 nattokinase (TKU015 nattokinase [2]; placed ten days at 25 ° C.): 80%
- Relative activity(%) TKU015 nattokinase (TKU015 nattokinase [4]): 88%
- Organic solvent resistance of chitinase (chitinase; [9]): can affect activity
- Effect of organic solvent on chitosanase activity (chitosanase): can affect activity

Molecule: CCO [ethanol]
- Relative activity(%) TKU015 nattokinase (TKU015 nattokinase [2]; placed ten days at 4 ° C.): 114%
- Relative activity(%) TKU015 nattokinase (TKU015 nattokinase [2]; placed ten days at 25 ° C.): 88%
- Relative activity(%) TKU015 nattokinase (TKU015 nattokinase [4]): 65%

Molecule: CCOC(C)=O [ethyl acetate]
- Relative activity(%) TKU015 nattokinase (TKU015 nattokinase [2]; placed ten days at 4 ° C.): 118%
- Relative activity(%) TKU015 nattokinase (TKU015 nattokinase [2]; placed ten days at 25 ° C.): 92%
- Relative activity(%) TKU015 nattokinase (TKU015 nattokinase [4]): 70%

Molecule: CCOCC [ethyl ether]
- Relative activity(%) TKU015 nattokinase (TKU015 nattokinase [2]; placed ten days at 4 ° C.): 98%
- Relative activity(%) TKU015 nattokinase (TKU015 nattokinase [2]; placed ten days at 25 ° C.): 70%
- Inhibition of TKU015 nattokinase activity (TKU015 nattokinase [4]): 50%
- Relative activity(%) TKU015 nattokinase (TKU015 nattokinase [4]): 43%
- Organic solvent resistance of chitinase (chitinase; [9]): can affect activity
- Organic solvent resistance of chitosanase (chitosanase; [10]): can affect activity

Molecule: CCCCCC [hexane]
- Relative activity(%) TKU015 nattokinase (TKU015 nattokinase [4]): 66%

Molecule: CC(C)CCO [isoamylalcohol]
- Relative activity(%) TKU015 nattokinase (TKU015 nattokinase [2]; placed ten days at 4 ° C.): 88%
- Relative activity(%) TKU015 nattokinase (TKU015 nattokinase [2]; placed ten days at 25 ° C.): 100%
- Relative activity(%) TKU015 nattokinase (TKU015 nattokinase [4]): 60%

Molecule: CC(C)O [isopropylalcohol]
- Relative activity(%) TKU015 nattokinase (TKU015 nattokinase [2]; placed ten days at 4 ° C.): 115%
- Relative activity(%) TKU015 nattokinase (TKU015 nattokinase [2]; placed ten days at 25 ° C.): 120%
- Relative activity(%) TKU015 nattokinase (TKU015 nattokinase [4]): 68%

Molecule: CO [methanol]
- Relative activity(%) TKU015 nattokinase (TKU015 nattokinase [2]; placed ten days at 4 ° C.): 116%
- Relative activity(%) TKU015 nattokinase (TKU015 nattokinase [2]; placed ten days at 25 ° C.): 90%
- Effect of organic solvent on TKU015 nattokinase activity (TKU015 nattokinase [4]): do not affect
- Relative activity(%) TKU015 nattokinase (TKU015 nattokinase [4]): 96%

Molecule: Cc1ccccc1 [toluene]
- Relative activity(%) TKU015 nattokinase (TKU015 nattokinase [2]; placed ten days at 4 ° C.): 120%
- Relative activity(%) TKU015 nattokinase (TKU015 nattokinase [2]; placed ten days at 25 ° C.): 100%
- Effect of solvent on PseA protease activity [3]: doesn't change
- Effect of organic solvent on TKU015 nattokinase activity (TKU015 nattokinase [4]): do not affect
- Relative activity(%) TKU015 nattokinase (TKU015 nattokinase [4]): 106%
- Organic solvent resistance of chitinase (chitinase; [7]): don't affect activity
- Effect of solvent on PST-01 protease activity (PST-01 protease): doesn't change
- Organic solvent resistance of chitosanase (chitosanase; [7]): don't affect activity

Molecule: Triton X-100
- Effect on PseA protease activity ([3]; concentration 0.1% or 0.5%): doesn't change
- Relative activity (%) Nattokinase (TKU015 nattokinase [5]; surfactant 0.5 % (v/v)): 160%
- Relative activity (%) Nattokinase (TKU015 nattokinase [5]; surfactant 1 % (v/v)): 206%
- Relative activity (%) Nattokinase (TKU015 nattokinase [5]; surfactant 2 % (v/v)): 344%

Molecule: Tween 40
- Relative activity (%) Nattokinase (TKU015 nattokinase [5]; surfactant 0.5 % (v/v)): 94%
- Relative activity (%) Nattokinase (TKU015 nattokinase [5]; surfactant 1 % (v/v)): 70%
- Relative activity (%) Nattokinase (TKU015 nattokinase [5]; surfactant 2 % (v/v)): 82%

Molecule: butanol
- Relative activity(%) TKU015 nattokinase (TKU015 nattokinase [2]; placed ten days at 4 ° C.): 125%
- Relative activity(%) TKU015 nattokinase (TKU015 nattokinase [2]; placed ten days at 25 ° C.): 85%
- Relative activity(%) TKU015 nattokinase (TKU015 nattokinase [4]): 70%

Molecule: xylene
- Relative activity(%) TKU015 nattokinase (TKU015 nattokinase [2]; placed ten days at 4 ° C.): 126%
- Relative activity(%) TKU015 nattokinase (TKU015 nattokinase [2]; placed ten days at 25 ° C.): 96%
- Effect of organic solvent on TKU015 nattokinase activity (TKU015 nattokinase [4]): do not affect
- Relative activity(%) TKU015 nattokinase (TKU015 nattokinase [4]): 96%
- Organic solvent resistance of chitinase (chitinase; [7]): don't affect activity
- Organic solvent resistance of chitosanase (chitosanase; [7]): don't affect activity

— US8093035B2, “Pseudomonas sp. strain and method of producing chitinase, chitosanase and nattokinase using the same” (Tamkang University, priority 2008, dated 2012)
